Assay [1] has as its target H1047R PIK3CA enzyme (Homo sapiens, UniProt P42336, H1047R). Briefly: ADP-Glo Biochemical PIK3CA Kinase Assay. Background: ADP-Glo turns the ADP formed in a reaction into a luminescent signal.
Assay [2] can be described thus: cells. The settings on record: Homo sapiens, MCF-10A, read-out: MCF10A IC50.

Structures are written as SMILES.

This passage reports IC50 results from US12581252B2, “Substituted pyrrolo[3,4-b]pyridines as PI3K-α inhibitors” (Relay Therapeutics, Inc., priority 2020, dated 2026).

Sequence of H1047R PIK3CA enzyme (P42336 whole entry H1047R): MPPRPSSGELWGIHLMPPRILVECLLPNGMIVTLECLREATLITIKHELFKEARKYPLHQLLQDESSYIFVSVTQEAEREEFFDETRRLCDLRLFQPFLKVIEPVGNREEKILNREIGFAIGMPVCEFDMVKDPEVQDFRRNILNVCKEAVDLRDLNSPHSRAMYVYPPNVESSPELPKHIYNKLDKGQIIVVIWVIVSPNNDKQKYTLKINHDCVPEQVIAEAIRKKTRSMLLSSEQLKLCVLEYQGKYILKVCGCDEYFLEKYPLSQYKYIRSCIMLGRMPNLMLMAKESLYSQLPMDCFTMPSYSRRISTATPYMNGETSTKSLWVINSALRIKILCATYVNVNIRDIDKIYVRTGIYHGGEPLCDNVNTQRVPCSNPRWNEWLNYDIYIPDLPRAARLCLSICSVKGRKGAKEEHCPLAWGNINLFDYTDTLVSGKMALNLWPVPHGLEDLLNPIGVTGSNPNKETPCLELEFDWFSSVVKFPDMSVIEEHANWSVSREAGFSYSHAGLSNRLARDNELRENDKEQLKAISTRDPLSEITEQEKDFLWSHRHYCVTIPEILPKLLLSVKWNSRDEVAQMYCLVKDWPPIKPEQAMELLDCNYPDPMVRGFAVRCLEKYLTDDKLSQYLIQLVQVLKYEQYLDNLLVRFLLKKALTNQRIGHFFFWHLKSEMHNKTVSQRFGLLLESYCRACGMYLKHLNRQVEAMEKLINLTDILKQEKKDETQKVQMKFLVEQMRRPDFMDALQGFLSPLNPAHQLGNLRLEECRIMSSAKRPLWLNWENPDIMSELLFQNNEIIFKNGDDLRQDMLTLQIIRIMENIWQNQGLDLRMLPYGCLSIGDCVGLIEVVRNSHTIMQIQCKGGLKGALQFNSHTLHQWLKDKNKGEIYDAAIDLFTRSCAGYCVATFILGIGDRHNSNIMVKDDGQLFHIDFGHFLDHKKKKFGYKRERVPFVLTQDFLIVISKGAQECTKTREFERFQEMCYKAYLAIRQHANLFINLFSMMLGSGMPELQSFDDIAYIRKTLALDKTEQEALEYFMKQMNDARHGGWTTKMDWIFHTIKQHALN
Sequence of H1047R PIK3CA enzyme (P27986 whole entry partner): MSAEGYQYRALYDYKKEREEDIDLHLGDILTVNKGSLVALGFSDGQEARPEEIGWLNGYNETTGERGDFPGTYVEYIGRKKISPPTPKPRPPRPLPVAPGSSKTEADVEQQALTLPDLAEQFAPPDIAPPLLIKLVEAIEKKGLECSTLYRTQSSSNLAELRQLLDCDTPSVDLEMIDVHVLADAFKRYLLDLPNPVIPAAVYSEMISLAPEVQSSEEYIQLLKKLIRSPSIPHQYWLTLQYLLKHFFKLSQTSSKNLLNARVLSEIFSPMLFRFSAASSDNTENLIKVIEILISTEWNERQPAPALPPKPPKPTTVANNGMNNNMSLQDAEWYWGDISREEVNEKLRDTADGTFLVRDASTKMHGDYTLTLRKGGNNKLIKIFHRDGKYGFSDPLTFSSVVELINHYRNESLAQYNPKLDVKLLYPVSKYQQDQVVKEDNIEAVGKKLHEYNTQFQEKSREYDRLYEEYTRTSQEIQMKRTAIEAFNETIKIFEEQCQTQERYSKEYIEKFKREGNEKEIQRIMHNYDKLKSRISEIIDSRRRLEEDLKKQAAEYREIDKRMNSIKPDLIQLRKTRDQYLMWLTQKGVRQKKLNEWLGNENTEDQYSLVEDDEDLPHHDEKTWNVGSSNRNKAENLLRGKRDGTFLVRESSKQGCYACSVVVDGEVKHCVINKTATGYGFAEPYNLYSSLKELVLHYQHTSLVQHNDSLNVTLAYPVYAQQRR

In general, IC50 refers to the concentration that gives 50% inhibition. With `CC(C)(CN)n1cc(-c2cc(NC(=O)c3cc(F)cc(C(F)(F)F)c3)c3c(c2)C(=O)NC3c2cc(F)ccc2Cl)cn1` (stereo not shown) [Compound I-2186], the IC50 in assay [1] is not above 0.1 µM; in assay [2] it was 1 to 5 µM.
In the same order, the values of `O=C(Nc1cc(-n2ccccc2=O)cc2c1C(c1cc(F)ccc1Cl)NC2=O)c1cc(F)cc(C(F)(F)F)c1` (stereo not shown) [Compound I-2192] are not above 0.1 µM and 1 to 5 µM.
On the same counts, the results for `CN(C)c1nc2cc(-c3cc(NC(=O)c4cc(F)cc(C(F)(F)F)c4)c4c(c3)C(=O)NC4c3cc(F)ccc3Cl)ccn2n1` (stereo not shown) [Compound I-2200] are not above 0.1 µM and less than 1 µM.
With `O=C(Nc1cc(-c2cn3ncnc3cn2)cc2c1C(c1cc(F)ccc1C(F)F)NC2=O)c1cc(F)cc(Cl)c1` (stereo not shown) [Compound I-2201], the concentration for half-maximal inhibition (IC50) is not above 0.1 µM in assay [1] and 1 to 5 µM in assay [2].
`N#Cc1c(N)cc(NC(=O)c2cc(F)cc(C(F)(F)F)c2)c2c1C(=O)NC2c1cc(F)ccc1Cl` (stereo not shown) [Compound I-2223]: the figures for the IC50 in assay [1] and in assay [2] were not above 0.1 µM and less than 1 µM, respectively.
For `O=C(Nc1cccc2c1C(c1cc(F)ccc1Cl)NC2=O)c1csc2c1CCCC2` (stereo not shown) [Compound I-2239], the IC50 in assay [1] is not above 0.1 µM; in assay [2], 1 to 5 µM.
As to `O=C(Nc1cc(NC2=NCCO2)cc2c1C(c1cc(F)ccc1Cl)NC2=O)c1cc(F)cc(C(F)(F)F)c1` (stereo not shown) [Compound I-2256], the IC50 in assay [1] was not above 0.1 µM; in assay [2], 1 to 5 µM.
On the same counts, the results for `O=C1NC(c2cc(F)ccc2C(F)F)c2c(NC(=O)N3CC(O)c4cc(F)ccc43)cc(Br)cc21` (stereo not shown) [Compound I-2257] are not above 0.1 µM and 1 to 5 µM.
In the same order, the values of `CC(O)c1cc(NC(=O)N2CC(O)c3ccccc32)c2c(c1)C(=O)NC2c1cc(F)ccc1Cl` (stereo not shown) [Compound I-2288] are not above 0.1 µM and 10 to 36 µM.
As to `CC(C#N)c1cc(NC(=O)c2cc(F)cc(C(F)(F)F)c2)c2c(c1)C(=O)N[C@H]2c1cc(F)ccc1Cl` (stereo partly shown) [Compound I-2290], the figures for the IC50 in assay [1] and in assay [2] were not above 0.1 µM and less than 1 µM, respectively.
`O=C(Nc1cc(NC2=NCC(C(F)(F)F)O2)cc2c1C(c1cc(F)ccc1Cl)NC2=O)c1cc(F)cc(C(F)(F)F)c1` (stereo not shown) [Compound I-2297]: the IC50 was not above 0.1 µM in assay [1] and 1 to 5 µM in assay [2].
In the same order, the values of `O=C1NC(c2cc(F)ccc2Cl)c2c(NC(=O)N3CC(O)c4cc(F)ccc43)cc(-c3cnn(C(F)F)c3)cc21` (stereo not shown) [Compound I-2299] are not above 0.1 µM and 1 to 5 µM.
On the same counts, the results for `O=C1NC(c2cc(F)ccc2Cl)c2c(NC(=O)N3CCc4cc(F)ccc43)cc(-c3cnn(C(F)F)c3)cc21` (stereo not shown) [Compound I-2300] are not above 0.1 µM and 1 to 5 µM.
As for `O=C(Nc1cc(NC2=NC3(CC3)CO2)cc2c1C(c1cc(F)ccc1Cl)NC2=O)c1cc(F)cc(C(F)(F)F)c1` (stereo not shown) [Compound I-2359], the IC50 in assay [1] is not above 0.1 µM; in assay [2], 1 to 5 µM.
On the same counts, the results for `O=C(Nc1cc(NC2=NC(C(F)(F)F)CO2)cc2c1C(c1cc(F)ccc1Cl)NC2=O)c1cc(F)cc(C(F)(F)F)c1` (stereo not shown) [Compound I-2360] are not above 0.1 µM and 5 to 10 µM.
In the case of `O=C(Nc1cc(NC2=NC3(CO2)CC(F)(F)C3)cc2c1C(c1cc(F)ccc1Cl)NC2=O)c1cc(F)cc(C(F)(F)F)c1` (stereo not shown) [Compound I-2409], the IC50 in assay [1] was not above 0.1 µM; in assay [2], 5 to 10 µM.
On to `N#Cc1cc(NC(=O)N2CC(O)(C(F)(F)F)c3cc(F)ccc32)c2c(c1)C(=O)NC2c1cc(F)ccc1Cl` (stereo not shown) [Compound I-2469], for which the results for the IC50 in assay [1] and in assay [2] were not above 0.1 µM and less than 1 µM, respectively.
On the same counts, the results for `N#Cc1cc(NC(=O)N2CC(O)(C(F)(F)F)c3ccccc32)c2c(c1)C(=O)NC2c1cc(F)ccc1Cl` (stereo not shown) [Compound I-2473] are not above 0.1 µM and less than 1 µM.
For `O=C1NC(c2cc(F)ccc2Cl)c2c(NC(=O)N3CC(O)(C(F)(F)F)c4cc(F)ccc43)cccc21` (stereo not shown) [Compound I-2474], the IC50 in assay [1] is not above 0.1 µM; in assay [2], 1 to 5 µM.
In the same order, the values of `O=C1NC(c2cc(F)ccc2Cl)c2c(NC(=O)N3CCc4ccccc43)cccc21` (stereo not shown) [Compound I-2479] are not above 0.1 µM and 1 to 5 µM.
Consider `NCc1cc(NC(=O)N2CC(O)(C(F)(F)F)c3cc(F)ccc32)c2c(c1)C(=O)NC2c1cc(F)ccc1Cl` (stereo not shown) [Compound I-2568], for which the IC50 in assay [1] was not above 0.1 µM; in assay [2], 10 to 36 µM.
In the same order, the values of `CNc1cc(NC(=O)N2CC(O)(C(F)(F)F)c3cc(F)ccc32)c2c(c1C#N)C(=O)NC2c1cc(F)ccc1Cl` (stereo not shown) [Compound I-2587] are not above 0.1 µM and 1 to 5 µM.
In the same order, the values of `NCc1cc(NC(=O)N2CC(O)(C(F)F)c3cc(F)ccc32)c2c(c1)C(=O)NC2c1cc(F)ccc1Cl` (stereo not shown) [Compound I-2597] are not above 0.1 µM and 10 to 36 µM.
Regarding `O=C1NC(c2cc(F)ccc2Cl)c2c(NC(=O)N3CC(O)(C(F)F)c4cc(F)ccc43)cc(F)cc21` (stereo not shown) [Compound I-2622], the IC50 in assay [1] is not above 0.1 µM; in assay [2], 1 to 5 µM.
On the same counts, the results for `O=C1NC(c2cc(F)ccc2Cl)c2c(NC(=O)N3CC(O)(C(F)(F)F)c4cc(F)ccc43)cc(F)cc21` (stereo not shown) [Compound I-2623] are not above 0.1 µM and less than 1 µM.
On the same counts, the results for `[2H]C1(c2cc(F)ccc2Cl)NC(=O)c2cccc(NC(=O)N3CC(O)(C(F)(F)F)c4cc(F)ccc43)c21` (stereo not shown) [Compound I-2648] are not above 0.1 µM and less than 1 µM.
